Measurements from patent US20050153870A1, “Medicinal composition for diagnosis, prevention, or therapy of multiple risk factor syndrome” (priority 2002, published 2005).
Marks after values point to notes of the source that are not given here.

Assays:
DOCA hypertension rat = assay: Hypercardia, thickened arteries, edema in organs; assay type: in vivo
Description: (§1) As to prevention/therapy of arteriosclerosis, a big difference is observed in effect between medicaments conceivably effective in improving arteriosclerosis, such as fibrate series medicament, thiazolidine series medicament, probucol, and statin series medicament and a compound of the present invention.

Rabbit = assay: Arteriosclerosis suppressing effect, rabbit on hyperfat feed; assay type: in vivo; settings: 0.2 to 0.05% mixed to hyperfat feed
Description: as §1

[1] = tested on: hypercholesterolemia patients; assay: Clinical test I; assay type: in vivo, human; settings: for Fasting blood sugar (FBS) level: 5 patients with high blood sugar
Description: The participants consisted of 9 Caucasian males and 7 Caucasian females. They participated in Clinical test I on a voluntary basis after they signed informed consent for clinical test participation, which was proposed by a medical institution based on the Helsinki declaration.
Their ages were 55 years old in average and ranging from 40 to 82 years old. Their average body weigh was 70.2±13.57 kg (standard deviation).
All participants took dietary therapy for treating hypercholesterolemia. Since various medicaments were administered, the period of 8 weeks, prior to Clinical test I, was provided to stop taking all pills, thereby washing out effects of medicaments. During the period of the Clinical test I, it was not allowed to take any other medicament together with a test medicament. Patients with type II diabetes were excluded from the participants; however, 5 patients with a high blood sugar level were included in the participants. Since they were not diagnosed as diabetes, they were allowed to participate in the test. Of 16 participants, 10 patients had hypertension and 4 patients had borderline hypertension defined by WHO. Only 2 patients had normal blood pressure.

Db/db mouse, ob/ob mouse = assay: Improvement of polydipsia and polyurea; assay type: in vivo; settings: in feed, hereditary diabetic obese mouse
C57BL/Ksj-db/db mice = assay: AS-6 in feed to db/db mice (Example 4); assay type: in vivo, mouse; settings: 0.1% in feed, 1 week
Procedure: C57BL/Ksj-db/db mice, which were model animals of multiple risk factor syndrome, were raised for a week with powered feed containing an ascochlorin derivative, 4-O-carboxymethylascochlorin (AS-6), in a content of 0.1%. Thereafter, the weight, blood sugar, blood insulin, and blood neutral fat were measured.

[2] = Borderline hypertensive group, 4 patients, 10th week, Placebo period after 8 weeks of medication
[3] = Borderline hypertensive group, 4 patients, 12th week, Placebo period after 8 weeks of medication
[4] = Hypertension group, 10 patients, 10th week, Placebo period after 8 weeks of medication
[5] = Hypertension group, 10 patients, 12th week, Placebo period after 8 weeks of medication

## COc1c(Cl)c(C)c(C=O)c(O)c1C/C=C(C)/C=C/[C@@]1(C)[C@H](C)CCC(=O)[C@@H]1C [4-O-methylascochlorin]
DOCA hypertension rat
  edema of various organs including the kidney: such as hypercardia and thickened arteries, and suppresses edema of various
  lesions associated with cardiovascular diseases such as hypercardia and thickened arteries: 4-0-methylascochlorin alleviates lesions associated with cardiovascular diseases
Rabbit
  death from circulatory failure: infarction derived from arteriosclerosis of the arteria coronaria and suppressing death
[1]; 2 patients of normal blood pressure
  normal blood pressure: does not affect normal blood pressure
[1]; 5 cases exhibiting high blood sugar
  blood sugar levels: brought back to normal levels
[1]; 1st week, 0.5 mg/kg, before medication 132.4 ± 16.0
  Fasting blood sugar (FBS) level: 100.0 ± 11.0 mg/dL
[1]; 2nd week, 1.0 mg/kg, before medication 132.4 ± 16.0
  Fasting blood sugar (FBS) level: 102.0 ± 4.0 mg/dL
[1]; 3rd week, 2.0 mg/kg, before medication 132.4 ± 16.0
  Fasting blood sugar (FBS) level: 103.6 ± 12.1 mg/dL
[1]; 4th week, 4.0 mg/kg, before medication 132.4 ± 16.0
  Fasting blood sugar (FBS) level: 103.2 ± 11.7 mg/dL
[1]; 6th week, 8.0 mg/kg, before medication 132.4 ± 16.0
  Fasting blood sugar (FBS) level: 98.0 ± 4.6 mg/dL
[1]; 8th week, 16.0 mg/kg, before medication 132.4 ± 16.0
  Fasting blood sugar (FBS) level: 93.3 ± 6.1 mg/dL
[1]; 10th week, Placebo period after 8 weeks of medication
  Fasting blood sugar (FBS) level: 93.5 ± 6.4 mg/dL
[1]; 12th week, Placebo period after 8 weeks of medication
  Fasting blood sugar (FBS) level: 100.5 ± 11.6 mg/dL
[1]; 5 patients, 6th week, 8 mg/kg
  Blood sugar level: completely returns to a normal level
[1]; 6th week, 16 folds the amount of 0.5 mg/kg
  Total serum cholesterol: decreased to the upper limit of the normal range
[1]; 8 weeks after the initiation of medication, P<0.001
  decrease of body weight compared to before medication: 0.9 kg
[1]; 10 hypertensive patients, 8th week
  blood pressure of the systolic period and the diastolic period: decreased both pressure values to normal levels
[1]; 16 hypercholesterolemia patients
  lowering of serum total cholesterol by medication: ≥ 30%
[1]; 16 hypercholesterolemia patients, 1st week, 0.5 mg/kg, before medication 342.0 ± 61.0
  Total serum cholesterol: 272.6 ± 62.7 mg/dL
[1]; 16 hypercholesterolemia patients, 2nd week, 1.0 mg/kg, before medication 342.0 ± 61.0
  Total serum cholesterol: 266.5 ± 66.7 mg/dL
[1]; 16 hypercholesterolemia patients, 3rd week, 2.0 mg/kg, before medication 342.0 ± 61.0
  Total serum cholesterol: 268.7 ± 66.0 mg/dL
[1]; 16 hypercholesterolemia patients, 4th week, 4.0 mg/kg, before medication 342.0 ± 61.0
  Total serum cholesterol: 254.2 ± 65.7 mg/dL
[1]; 16 hypercholesterolemia patients, 6th week, 8.0 mg/kg, before medication 342.0 ± 61.0
  Total serum cholesterol: 217.4 ± 58.8 mg/dL
[1]; 16 hypercholesterolemia patients, 8th week, 16.0 mg/kg, before medication 342.0 ± 61.0
  Total serum cholesterol: 229.5 ± 61.9 mg/dL
[1]; 16 hypercholesterolemia patients, 10th week, Placebo period after 8 weeks of medication
  Total serum cholesterol: 255.9 ± 57.6 mg/dL
[1]; 16 hypercholesterolemia patients, 12th week, Placebo period after 8 weeks of medication
  Total serum cholesterol: 264.0 ± 57.5 mg/dL
[1]; 16 patients, 12 weeks
  abnormality in the serum biological test, hematocyte test, and urine test: No abnormality ascribed to medication
[1]; 16 patients, 12 weeks, 0.5 to 16.0 mg/kg, not so severe, medication continued
  side effect: one case with light eruption and one case with dizziness
[1]; Borderline hypertensive group, 4 patients, 1st week, 0.5 mg/kg, before medication 87.1 ± 2.7
  Diastolic pressure: 82.1 ± 3.9 mmHg
[1]; Borderline hypertensive group, 4 patients, 1st week, 0.5 mg/kg, before medication 149.3 ± 7.9
  Systolic pressure: 133.6 ± 9.0 mmHg
[1]; Borderline hypertensive group, 4 patients, 2nd week, 1.0 mg/kg, before medication 87.1 ± 2.7
  Diastolic pressure: 81.4 ± 4.8 mmHg
[1]; Borderline hypertensive group, 4 patients, 2nd week, 1.0 mg/kg, before medication 149.3 ± 7.9
  Systolic pressure: 134.3 ± 6.7 mmHg
[1]; Borderline hypertensive group, 4 patients, 3rd week, 2.0 mg/kg, before medication 87.1 ± 2.7
  Diastolic pressure: 81.4 ± 2.4 mmHg
[1]; Borderline hypertensive group, 4 patients, 3rd week, 2.0 mg/kg, before medication 149.3 ± 7.9
  Systolic pressure: 134.3 ± 9.3 mmHg
[1]; Borderline hypertensive group, 4 patients, 4th week, 4.0 mg/kg, before medication 87.1 ± 2.7
  Diastolic pressure: 80.7 ± 3.5 mmHg
[1]; Borderline hypertensive group, 4 patients, 4th week, 4.0 mg/kg, before medication 149.3 ± 7.9
  Systolic pressure: 130.7 ± 8.9 mmHg
[1]; Borderline hypertensive group, 4 patients, 6th week, 8.0 mg/kg, before medication 87.1 ± 2.7
  Diastolic pressure: 78.6 ± 3.8 mmHg
[1]; Borderline hypertensive group, 4 patients, 6th week, 8.0 mg/kg, before medication 149.3 ± 7.9
  Systolic pressure: 130.7 ± 8.9 mmHg
[1]; Borderline hypertensive group, 4 patients, 8th week, 16.0 mg/kg, before medication 87.1 ± 2.7
  Diastolic pressure: 77.9 ± 3.9 mmHg
[1]; Borderline hypertensive group, 4 patients, 8th week, 16.0 mg/kg, before medication 149.3 ± 7.9
  Systolic pressure: 130.0 ± 8.2 mmHg
[1]; [2]
  Diastolic pressure: 78.6 ± 4.8 mmHg
  Systolic pressure: 130.7 ± 9.3 mmHg
[1]; [3]
  Diastolic pressure: 78.6 ± 4.8 mmHg
  Systolic pressure: 132.1 ± 10.4 mmHg
[1]; Hypertension group, 10 patients, 1st week, 0.5 mg/kg, before medication 91.0 ± 7.7
  Diastolic pressure: 83.5 ± 4.7 mmHg
[1]; Hypertension group, 10 patients, 1st week, 0.5 mg/kg, before medication 161.5 ± 21.1
  Systolic pressure: 143.5 ± 28.5 mmHg
[1]; Hypertension group, 10 patients, 2nd week, 1.0 mg/kg, before medication 91.0 ± 7.7
  Diastolic pressure: 83.0 ± 5.4 mmHg
[1]; Hypertension group, 10 patients, 2nd week, 1.0 mg/kg, before medication 161.5 ± 21.1
  Systolic pressure: 147.5 ± 28.5 mmHg
[1]; Hypertension group, 10 patients, 3rd week, 2.0 mg/kg, before medication 91.0 ± 7.7
  Diastolic pressure: 84.5 ± 6.0 mmHg
[1]; Hypertension group, 10 patients, 3rd week, 2.0 mg/kg, before medication 161.5 ± 21.1
  Systolic pressure: 147.5 ± 26.1 mmHg
[1]; Hypertension group, 10 patients, 4th week, 4.0 mg/kg, before medication 91.0 ± 7.7
  Diastolic pressure: 85.5 ± 9.44 mmHg
[1]; Hypertension group, 10 patients, 4th week, 4.0 mg/kg, before medication 161.5 ± 21.1
  Systolic pressure: 148.5 ± 26.8 mmHg
[1]; Hypertension group, 10 patients, 6th week, 8.0 mg/kg, before medication 91.0 ± 7.7
  Diastolic pressure: 83.5 ± 9.44 mmHg
[1]; Hypertension group, 10 patients, 6th week, 8.0 mg/kg, before medication 161.5 ± 21.1
  Systolic pressure: 144.5 ± 29.8 mmHg
[1]; Hypertension group, 10 patients, 8th week, 16.0 mg/kg, before medication 91.0 ± 7.7
  Diastolic pressure: 78.1 ± 3.7 mmHg
[1]; Hypertension group, 10 patients, 8th week, 16.0 mg/kg, before medication 161.5 ± 21.1
  Systolic pressure: 130.0 ± 7.6 mmHg
[1]; [4]
  Diastolic pressure: 83.5 ± 8.8 mmHg
  Systolic pressure: 145.5 ± 26.3 mmHg
[1]; [5]
  Diastolic pressure: 84.0 ± 9.7 mmHg
  Systolic pressure: 151.5 ± 32.4 mmHg
[1]; medication for 8 weeks
  blood pressure of the hypertension group and borderline hypertension group: dropped to the upper limit of a normal range
[1]; one week after 0.5 mg/kg perorally
  drop of total serum cholesterol, average: 70 mg/dL
[1]; ratio of serum neutral fat/serum total cholesterol 1.2 or less (hyperlipemia type IIa)
  Serum neutral fat: significantly decreased
[1]; ratio of serum neutral fat/serum total cholesterol 1.2 or more (hyperlipemia type IIb and type IV)
  Serum neutral fat: a significant decrease of serum neutral fat was not observed

## CC(C=CC1(C)C(C)CCC(=O)C1C)=CCc1c(O)c(C=O)c(C)c(Cl)c1OCC(=O)O (stereo not shown) [AS-6, 4-O-carboxymethylascochlorin]
Db/db mouse, ob/ob mouse
  amount of drinking water: obese mouse, the amount of drinking water decreases in a dose-dependent manner,
  amount of sugar excreted in the urine: excreted in the urine significantly decreases.
C57BL/Ksj-db/db mice
  Blood sugar, change vs db/db control group: −30.0%**
  Body weight, change vs db/db control group: ns
  Cholesterol, change vs db/db control group: ns
  Free fatty acid, change vs db/db control group: −21.1%**
  Insulin, change vs db/db control group: ns
  Neutral fat, change vs db/db control group: −38.3%**
C57BL/Ksj-db/db mice; db/db control 1.164 ± 0.03
  Free fatty acid: 0.918 ± 0.1 mEq/L
C57BL/Ksj-db/db mice; db/db control 31.0 ± 3.6
  Insulin: 34.6 ± 3.5 μU/mL
C57BL/Ksj-db/db mice; db/db control 52.9 ± 0.8
  Body weight: 56.3 ± 1.2 g
C57BL/Ksj-db/db mice; db/db control 109.9 ± 3.3
  Cholesterol: 114.4 ± 4.3 mg/dL
C57BL/Ksj-db/db mice; db/db control 378.5 ± 19.3
  Neutral fat: 223.5 ± 17.7 mg/dL
C57BL/Ksj-db/db mice; db/db control 637.3 ± 28.9
  blood sugar: 445.8 ± 32.5 mg/dL
C57BL/Ksj-db/db mice; db/db mice
  blood sugar, blood free fatty acid, and blood neutral fat: significantly reduced
